Experimental data as given in patent US12492186B2, “Bicyclic heterocyclic compounds useful as IRAK4 inhibitors” (BRISTOL-MYERS SQUIBB COMPANY, priority 2019, dated 2025).

The compounds below were run against IRAK4 (Homo sapiens (Human), UniProt Q9NWZ3) (assay: IRAK4 Inhibition Assay). Conditions: ATP 500 μM; IRAK4 0.6 nM; 60 min room temperature; Caliper LABCHIP 3000.
Type: biochemical
Protocol: The assays were performed in U-bottom 384-well plates. The final assay volume was 30 μL prepared from 15 μL additions of enzyme and substrates (fluoresceinated peptide and ATP) and test compounds in assay buffer (20 mM HEPES pH 7.2, 10 mM MgCl2, 0.015% Brij 35 and 4 mM DTT). The reaction was initiated by the combination of IRAK4 with substrates and test compounds. The reaction mixture was incubated at room temperature for 60 min. and terminated by adding 45 μL of 35 mM EDTA to each sample. The reaction mixture was analyzed on the Caliper LABCHIP® 3000 (Caliper, Hopkinton, MA) by electrophoretic separation of the fluorescent substrate and phosphorylated product. Inhibition data were calculated by comparison to no enzyme control reactions for 100% inhibition and vehicle-only reactions for 0% inhibition. The final concentrations of reagents in the assays are ATP, 500 μM; FL-IPTSPITTTYFFFKKK peptide 1.5 μM; IRAK4, 0.6 nM; and DMSO, 1.6%.

Sequence of IRAK4 (Q9NWZ3 whole entry, species assumed): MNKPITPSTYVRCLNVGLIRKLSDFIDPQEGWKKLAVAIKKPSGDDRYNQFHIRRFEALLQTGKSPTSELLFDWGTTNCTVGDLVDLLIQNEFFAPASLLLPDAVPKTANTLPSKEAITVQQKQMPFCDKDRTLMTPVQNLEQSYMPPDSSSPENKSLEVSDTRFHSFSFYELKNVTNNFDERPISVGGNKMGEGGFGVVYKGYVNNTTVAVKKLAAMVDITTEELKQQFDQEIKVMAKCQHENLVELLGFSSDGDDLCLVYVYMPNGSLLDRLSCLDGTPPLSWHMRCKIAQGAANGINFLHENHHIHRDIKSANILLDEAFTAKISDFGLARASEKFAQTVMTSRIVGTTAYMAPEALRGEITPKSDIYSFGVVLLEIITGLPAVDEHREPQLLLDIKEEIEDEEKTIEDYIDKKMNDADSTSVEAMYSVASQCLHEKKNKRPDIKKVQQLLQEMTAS

Row | IC50 [nM] | Compound
1 | 38 | CC(C)Nc1c(C(=O)N[C@H]2C[C@H](O)C2)cnc2ccc(-c3cn[nH]c3)cc12 [Example 60, N-((1r,3r)-3-hydroxycyclobutyl)-4-(isopropylamino)-6-(1H-pyrazol-4-yl)quinoline-3-carboxamide]
2 | 22.3 | CC(C)(O)CCNC(=O)c1cnc2ccc(-c3cn[nH]c3)cc2c1NCC(F)F [Example 62, 4-((2,2-difluoroethyl)amino)-N-(3-hydroxy-3-methylbutyl)-6-(1H-pyrazol-4-yl)quinoline-3-carboxamide]
3 | 34.4 | O=C(NCCN1CCOCC1)c1cnc2ccc(-c3cn[nH]c3)cc2c1NCC(F)F [Example 63, 4-((2,2-difluoroethyl)amino)-N-(2-morpholinoethyl)-6-(1H-pyrazol-4-yl)quinoline-3-carboxamide]
4 | 28 | CC(O)CCNC(=O)c1cnc2ccc(-c3cn[nH]c3)cc2c1NCC(F)F (centres unmarked) [Example 64, 4-((2,2-difluoroethyl)amino)-N-(3-hydroxybutyl)-6-(1H-pyrazol-4-yl)quinoline-3-carboxamide]
5 | 60.7 | CNC(=O)CCNC(=O)c1cnc2ccc(-c3cn[nH]c3)cc2c1NCC(F)F [Example 66, 4-((2,2-difluoroethyl)amino)-N-(3-(methylamino)-3-oxopropyl)-6-(1H-pyrazol-4-yl)quinoline-3-carboxamide]
6 | 22.9 | O=C(NCCC(F)F)c1cnc2ccc(-c3cn[nH]c3)cc2c1NCC(F)F [Example 67, 4-((2,2-difluoroethyl)amino)-N-(3,3-difluoropropyl)-6-(1H-pyrazol-4-yl)quinoline-3-carboxamide]
7 | 35.1 | O=C(NCCC(F)(F)F)c1cnc2ccc(-c3cn[nH]c3)cc2c1NCC(F)F [Example 68, 4-((2,2-difluoroethyl)amino)-6-(1H-pyrazol-4-yl)-N-(3,3,3-trifluoropropyl)quinoline-3-carboxamide]
8 | 20.1 | O=C(NCCC1CC1)c1cnc2ccc(-c3cn[nH]c3)cc2c1NCC(F)F [Example 75, N-(2-cyclopropylethyl)-4-((2,2-difluoroethyl)amino)-6-(1H-pyrazol-4-yl)quinoline-3-carboxamide]
9 | 24.5 | CC(C)Nc1c(C(=O)NC2CCN(C(=O)CC(F)(F)F)CC2)cnc2ccc(-c3cn[nH]c3)cc12 [Example 83, 4-(isopropylamino)-6-(1H-pyrazol-4-yl)-N-(1-(3,3,3-trifluoropropanoyl)piperidin-4-yl)quinoline-3-carboxamide]
10 | 20.7 | CC(=O)N1CCCC1CCNC(=O)c1cnc2ccc(-c3cn[nH]c3)cc2c1NC(C)C (centres unmarked) [Example 85, N-(2-(1-acetylpyrrolidin-2-yl)ethyl)-4-(isopropylamino)-6-(1H-pyrazol-4-yl) quinoline-3-carboxamide]
11 | 28.6 | CC(C)Nc1c(C(=O)NCCN2CCCCC2=O)cnc2ccc(-c3cn[nH]c3)cc12 [Example 86, 4-(isopropylamino)-N-(2-(2-oxopiperidin-1-yl)ethyl)-6-(1H-pyrazol-4-yl)quinoline-3-carboxamide]
12 | 34.4 | CC(C)Nc1c(C(=O)NCC(=O)N2CCOCC2)cnc2ccc(-c3cn[nH]c3)cc12 [Example 90, 4-(isopropylamino)-N-(2-morpholino-2-oxoethyl)-6-(1H-pyrazol-4-yl)quinoline-3-carboxamide]
13 | 29.3 | CC(C)Nc1c(C(=O)NCCC2CCCN2C(=O)C2CC2)cnc2ccc(-c3cn[nH]c3)cc12 (centres unmarked) [Example 93, N-(2-(1-(cyclopropanecarbonyl)pyrrolidin-2-yl)ethyl)-4-(isopropylamino)-6-(1H-pyrazol-4-yl)quinoline-3-carboxamide]
14 | 264 | CC(C)(O)CCNc1c(C(N)=O)cnc2ccc(-c3cn[nH]c3)cc12 [Example 99, 4-((3-hydroxy-3-methylbutyl)amino)-6-(1H-pyrazol-4-yl)quinoline-3-carboxamide]
15 | 23 | CC(C)Nc1c(C(=O)NCCc2c[nH]cn2)cnc2ccc(-c3cn[nH]c3)cc12 [Example 102, N-(2-(1H-imidazol-4-yl)ethyl)-4-(isopropylamino)-6-(1H-pyrazol-4-yl)quinoline-3-carboxamide]
16 | 35.4 | CC(C)Nc1c(C(=O)NCCc2ncn[nH]2)cnc2ccc(-c3cn[nH]c3)cc12 [Example 104, N-(2-(1H-1,2,4-triazol-5-yl)ethyl)-4-(isopropylamino)-6-(1H-pyrazol-4-yl) quinoline-3-carboxamide]
17 | 338 | CC(C)Nc1c(C(=O)NCC2(C)NC(=O)NC2=O)cnc2ccc(-c3cn[nH]c3)cc12 (centres unmarked) [Example 105, 4-(isopropylamino)-N-((4-methyl-2,5-dioxoimidazolidin-4-yl)methyl)-6-(1H-pyrazol-4-yl)quinoline-3-carboxamide]
18 | 118 | CC(C)Nc1c(C(=O)NCCc2ncno2)cnc2ccc(-c3cn[nH]c3)cc12 [Example 106, N-(2-(1,2,4-oxadiazol-5-yl)ethyl)-4-(isopropylamino)-6-(1H-pyrazol-4-yl)quinoline-3-carboxamide]
19 | 554 | CNc1c(C(N)=O)cnc2ccc(-c3cn[nH]c3)cc12 [Example 108, 4-(methylamino)-6-(1H-pyrazol-4-yl)quinoline-3-carboxamide]
20 | 212 | CC(C)Nc1c(C(=O)NCCc2nnn[nH]2)cnc2ccc(-c3cn[nH]c3)cc12 [Example 110, N-(2-(1H-tetrazol-5-yl)ethyl)-4-(isopropylamino)-6-(1H-pyrazol-4-yl)quinoline-3-carboxamide]

Further lines, the compound ahead of its results:

Row | Compound | IC50 [nM]
21 | COC(=O)NC1CC(NC(=O)c2cnc3ccc(-c4cn[nH]c4)cc3c2NC2CC(F)(F)C2)C1 (centres unmarked) [Example 58, methyl ((1r,3r)-3-(4-((3,3-difluorocyclobutyl)amino)-6-(1H-pyrazol-4-yl)quinoline-3-carboxamido)cyclobutyl)carbamate] | 29.9
22 | Cc1cc2ncc(C(=O)NCCC(C)(C)O)c(NC(C)C)c2cc1-c1cncs1 [Example 61, N-(3-hydroxy-3-methylbutyl)-4-(isopropylamino)-7-methyl-6-(thiazol-5-yl)quinoline-3-carboxamide] | 231
23 | CC(C)Nc1c(C(=O)NCCC(C)(C)O)cnc2ccc(-c3ccc(C#N)nc3)cc12 [Example 69, 6-(6-cyanopyridin-3-yl)-N-(3-hydroxy-3-methylbutyl)-4-(isopropylamino)quinoline-3-carboxamide] | 131
24 | CC(C)Nc1c(C(=O)NCCC(C)(C)O)cnc2ccc(-c3ccc(F)nc3)cc12 [Example 70, 6-(6-fluoropyridin-3-yl)-N-(3-hydroxy-3-methylbutyl)-4-(isopropylamino)quinoline-3-carboxamide] | 119
25 | Cc1cc(-c2ccc3ncc(C(=O)NCCC(C)(C)O)c(NC(C)C)c3c2)cnc1F [Example 71, 6-(6-fluoro-5-methylpyridin-3-yl)-N-(3-hydroxy-3-methylbutyl)-4-(isopropylamino)quinoline-3-carboxamide] | 307
26 | CC(C)Nc1c(C(=O)NCCC(C)(C)O)cnc2ccc(-c3cncc(F)c3)cc12 [Example 72, 6-(5-fluoropyridin-3-yl)-N-(3-hydroxy-3-methylbutyl)-4-(isopropylamino)quinoline-3-carboxamide] | 176
27 | CC(C)Nc1c(C(=O)NCCC(C)(C)O)cnc2ccc(-c3ccc(F)nc3F)cc12 [Example 73, 6-(2,6-difluoropyridin-3-yl)-N-(3-hydroxy-3-methylbutyl)-4-(isopropylamino)quinoline-3-carboxamide] | 51.2
28 | CC(C)Nc1c(C(=O)NCCC(C)(C)O)cnc2ccc(-c3ccc(=O)[nH]c3)cc12 [Example 74, N-(3-hydroxy-3-methylbutyl)-4-(isopropylamino)-6-(6-oxo-1,6-dihydropyridin-3-yl)quinoline-3-carboxamide] | 124
29 | CC(C)Nc1c(C(=O)NC2CCN(S(=O)(=O)CCC(F)(F)F)CC2)cnc2ccc(-c3cn[nH]c3)cc12 [Example 89, 4-(isopropylamino)-6-(1H-pyrazol-4-yl)-N-(1-((3,3,3-trifluoropropyl)sulfonyl)piperidin-4-yl)quinoline-3-carboxamide] | 32.8
30 | CC(C)Nc1c(C(=O)NC(C)(C)C(=O)N2CCOCC2)cnc2ccc(-c3cn[nH]c3)cc12 [Example 91, 4-(isopropylamino)-N-(2-methyl-1-morpholino-1-oxopropan-2-yl)-6-(1H-pyrazol-4-yl) quinoline-3-carboxamide] | 1810
31 | CC(C)Nc1c(C(=O)NC2CN(S(C)(=O)=O)C2)cnc2ccc(-c3cn[nH]c3)cc12 [Example 92, 4-(isopropylamino)-N-(1-(methylsulfonyl)azetidin-3-yl)-6-(1H-pyrazol-4-yl)quinoline-3-carboxamide] | 32.2
32 | CC(C)Nc1c(C(=O)Nc2ccc(N3CCOCC3)nc2)cnc2ccc(-c3cn[nH]c3)cc12 [Example 100, 4-(isopropylamino)-N-(6-morpholinopyridin-3-yl)-6-(1H-pyrazol-4-yl)quinoline-3-carboxamide] | 4.5
33 | CNc1c(C(N)=O)cnc2ccc(-c3cncs3)cc12 [Example 111, 4-(methylamino)-6-(thiazol-5-yl)quinoline-3-carboxamide] | 1550
34 | O=C(NCC1CCS(=O)(=O)CC1)c1cnc2ccc(-c3cn[nH]c3)cc2c1NC1CC1 [Example 116, 4-(cyclopropylamino)-N-((1,1-dioxidotetrahydro-2H-thiopyran-4-yl)methyl)-6-(1H-pyrazol-4-yl)quinoline-3-carboxamide] | 43.7
35 | CC(C)Cc1nc(-c2cnc3ccc(-c4cn[nH]c4)cc3c2NC(C)C)n[nH]1 [Example 124, 3-(5-isobutyl-1H-1,2,4-triazol-3-yl)-N-isopropyl-6-(1H-pyrazol-4-yl)quinolin-4-amine] | 107
